Assays:
Set-up in all cases: scale not given: the % may be the effect or the level left
[1] = biological target: Serine/threonine-protein kinase B-raf (Homo sapiens) (UniProt P15056); assay: Inhibition of human BRAF assessed as enzyme activity at 1 uM using MEK1 (K97R) as substrate preincubated for 20 mins followed by [gamma-33P]-ATP addition and measured after 120 mins by radiometric Hot-SpotSM Kinase assay relative to control
[2] = biological target: Calcium/calmodulin-dependent protein kinase type II subunit gamma (Homo sapiens) (UniProt Q13555); assay: Inhibition of human CAMK2g assessed as enzyme activity at 1 uM using KKLNRTLSFAEPG as substrate preincubated for 20 mins followed by [gamma-33P]-ATP addition and measured after 120 mins by radiometric Hot-SpotSM Kinase assay relative to control
[3] = biological target: Cyclin-dependent kinase 2/cyclin E1 (Homo sapiens) (UniProt P24864+P24941); assay: Inhibition of human CDK2/cyclin E assessed as enzyme activity at 1 uM using RB Protein as substrate preincubated for 20 mins followed by [gamma-33P]-ATP addition and measured after 120 mins by radiometric Hot-SpotSM Kinase assay relative to control; type: protein-complex assay
[4] = biological target: T1, Ephrin type-A receptor 8 (Homo sapiens) (UniProt P29322); assay: Inhibition of human EPHA8 assessed as enzyme activity at 1 uM using poly[Glu:Tyr] (4:1) as substrate preincubated for 20 mins followed by [gamma-33P]-ATP addition and measured after 120 mins by radiometric Hot-SpotSM Kinase assay relative to control
T1 sequence (whole entry): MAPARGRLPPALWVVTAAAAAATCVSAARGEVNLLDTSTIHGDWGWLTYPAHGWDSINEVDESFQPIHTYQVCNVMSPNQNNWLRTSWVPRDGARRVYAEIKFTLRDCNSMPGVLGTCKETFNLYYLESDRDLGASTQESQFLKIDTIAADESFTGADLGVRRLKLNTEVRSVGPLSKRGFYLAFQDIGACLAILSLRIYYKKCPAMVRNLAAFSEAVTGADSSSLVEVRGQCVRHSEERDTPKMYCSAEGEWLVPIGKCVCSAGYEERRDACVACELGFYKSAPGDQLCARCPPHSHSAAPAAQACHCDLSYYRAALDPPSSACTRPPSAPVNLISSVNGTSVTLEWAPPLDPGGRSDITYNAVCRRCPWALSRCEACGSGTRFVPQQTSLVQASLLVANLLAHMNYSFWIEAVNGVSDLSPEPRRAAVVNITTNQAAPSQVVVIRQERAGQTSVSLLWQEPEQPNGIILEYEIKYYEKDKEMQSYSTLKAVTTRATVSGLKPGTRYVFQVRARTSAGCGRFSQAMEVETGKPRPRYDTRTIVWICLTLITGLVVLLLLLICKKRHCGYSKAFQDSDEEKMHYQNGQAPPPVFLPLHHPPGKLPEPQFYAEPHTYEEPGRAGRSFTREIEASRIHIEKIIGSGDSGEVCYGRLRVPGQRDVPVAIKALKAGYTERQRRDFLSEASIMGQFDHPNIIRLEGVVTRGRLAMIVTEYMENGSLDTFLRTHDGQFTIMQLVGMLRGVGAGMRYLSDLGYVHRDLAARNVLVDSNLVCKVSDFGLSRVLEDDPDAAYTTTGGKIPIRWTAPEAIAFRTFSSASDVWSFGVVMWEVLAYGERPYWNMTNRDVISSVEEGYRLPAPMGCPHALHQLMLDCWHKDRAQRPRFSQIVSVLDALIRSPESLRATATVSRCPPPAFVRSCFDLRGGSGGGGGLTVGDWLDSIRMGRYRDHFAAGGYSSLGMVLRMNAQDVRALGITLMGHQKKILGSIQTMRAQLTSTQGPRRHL

[5] = biological target: T2, Dual specificity mitogen-activated protein kinase kinase 5 (Homo sapiens) (UniProt Q13163); assay: Inhibition of human MEK5 assessed as enzyme activity at 1 uM using ERK5 (K84R) as substrate preincubated for 20 mins followed by [gamma-33P]-ATP addition and measured after 120 mins by radiometric Hot-SpotSM Kinase assay relative to control
T2 sequence (whole entry): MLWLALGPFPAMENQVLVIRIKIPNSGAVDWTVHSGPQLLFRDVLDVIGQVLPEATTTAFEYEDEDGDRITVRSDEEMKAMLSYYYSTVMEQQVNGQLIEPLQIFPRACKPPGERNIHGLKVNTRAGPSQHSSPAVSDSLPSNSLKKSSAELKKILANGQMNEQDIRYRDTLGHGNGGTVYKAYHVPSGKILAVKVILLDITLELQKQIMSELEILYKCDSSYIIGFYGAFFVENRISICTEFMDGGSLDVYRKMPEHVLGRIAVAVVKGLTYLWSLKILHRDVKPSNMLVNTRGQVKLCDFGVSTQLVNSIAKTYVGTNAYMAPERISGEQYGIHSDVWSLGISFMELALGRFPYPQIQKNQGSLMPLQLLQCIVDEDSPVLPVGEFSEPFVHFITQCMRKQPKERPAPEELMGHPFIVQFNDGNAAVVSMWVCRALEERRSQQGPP

[6] = biological target: Ribosomal protein S6 kinase beta-1 (Homo sapiens) (UniProt P23443); assay: Inhibition of human p70S6K assessed as enzyme activity at 1 uM using KKRNRTLTK as substrate preincubated for 20 mins followed by [gamma-33P]-ATP addition and measured after 120 mins by radiometric Hot-SpotSM Kinase assay relative to control
[7] = biological target: Serine/threonine-protein kinase PLK1 (Homo sapiens) (UniProt P53350); assay: Inhibition of human PLK1 assessed as enzyme activity at 1 uM using casein as substrate preincubated for 20 mins followed by [gamma-33P]-ATP addition and measured after 120 mins by radiometric Hot-SpotSM Kinase assay relative to control
[8] = biological target: Serine/threonine-protein kinase SBK1 (Homo sapiens) (UniProt Q52WX2); assay: Inhibition of human SBK1 assessed as enzyme activity at 1 uM using LCGRTGRRNSI as substrate preincubated for 20 mins followed by [gamma-33P]-ATP addition and measured after 120 mins by radiometric Hot-SpotSM Kinase assay relative to control
[9] = biological target: TGF-beta receptor type-2 (Homo sapiens) (UniProt P37173); assay: Inhibition of human TGFBR2 assessed as enzyme activity at 1 uM using myelin basic protein as substrate preincubated for 20 mins followed by [gamma-33P]-ATP addition and measured after 120 mins by radiometric Hot-SpotSM Kinase assay relative to control
Sequence of TGF-beta receptor type-2 (Homo sapiens) (P37173 whole entry): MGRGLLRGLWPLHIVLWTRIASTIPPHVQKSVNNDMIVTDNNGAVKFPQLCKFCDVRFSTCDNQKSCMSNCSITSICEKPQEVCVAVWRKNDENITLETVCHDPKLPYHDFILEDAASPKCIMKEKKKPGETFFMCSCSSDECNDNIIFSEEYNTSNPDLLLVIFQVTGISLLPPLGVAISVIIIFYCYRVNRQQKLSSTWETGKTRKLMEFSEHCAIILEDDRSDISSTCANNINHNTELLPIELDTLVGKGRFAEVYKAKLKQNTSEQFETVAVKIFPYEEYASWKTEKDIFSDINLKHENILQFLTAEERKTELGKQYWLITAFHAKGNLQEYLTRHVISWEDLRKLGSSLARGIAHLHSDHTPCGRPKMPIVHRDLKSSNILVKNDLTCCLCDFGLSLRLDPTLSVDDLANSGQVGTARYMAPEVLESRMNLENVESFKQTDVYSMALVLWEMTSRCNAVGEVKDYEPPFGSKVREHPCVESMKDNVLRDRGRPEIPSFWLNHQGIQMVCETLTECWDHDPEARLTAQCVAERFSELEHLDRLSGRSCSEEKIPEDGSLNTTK

Sequence of Ribosomal protein S6 kinase beta-1 (Homo sapiens) (P23443 whole entry, looked up): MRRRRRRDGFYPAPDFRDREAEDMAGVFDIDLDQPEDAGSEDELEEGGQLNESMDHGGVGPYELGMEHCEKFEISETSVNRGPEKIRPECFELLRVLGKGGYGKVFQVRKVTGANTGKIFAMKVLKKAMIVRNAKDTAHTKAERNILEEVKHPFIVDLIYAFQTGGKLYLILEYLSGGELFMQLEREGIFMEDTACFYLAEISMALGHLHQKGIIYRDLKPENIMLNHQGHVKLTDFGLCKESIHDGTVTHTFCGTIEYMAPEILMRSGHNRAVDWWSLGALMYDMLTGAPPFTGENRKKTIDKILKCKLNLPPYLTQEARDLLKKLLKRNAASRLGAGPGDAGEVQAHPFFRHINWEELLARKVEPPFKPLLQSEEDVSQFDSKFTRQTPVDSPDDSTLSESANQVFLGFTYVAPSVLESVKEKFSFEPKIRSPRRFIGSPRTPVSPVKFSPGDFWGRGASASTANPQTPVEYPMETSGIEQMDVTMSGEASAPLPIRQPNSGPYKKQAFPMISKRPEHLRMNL
Sequence of Serine/threonine-protein kinase B-raf (Homo sapiens) (P15056 whole entry): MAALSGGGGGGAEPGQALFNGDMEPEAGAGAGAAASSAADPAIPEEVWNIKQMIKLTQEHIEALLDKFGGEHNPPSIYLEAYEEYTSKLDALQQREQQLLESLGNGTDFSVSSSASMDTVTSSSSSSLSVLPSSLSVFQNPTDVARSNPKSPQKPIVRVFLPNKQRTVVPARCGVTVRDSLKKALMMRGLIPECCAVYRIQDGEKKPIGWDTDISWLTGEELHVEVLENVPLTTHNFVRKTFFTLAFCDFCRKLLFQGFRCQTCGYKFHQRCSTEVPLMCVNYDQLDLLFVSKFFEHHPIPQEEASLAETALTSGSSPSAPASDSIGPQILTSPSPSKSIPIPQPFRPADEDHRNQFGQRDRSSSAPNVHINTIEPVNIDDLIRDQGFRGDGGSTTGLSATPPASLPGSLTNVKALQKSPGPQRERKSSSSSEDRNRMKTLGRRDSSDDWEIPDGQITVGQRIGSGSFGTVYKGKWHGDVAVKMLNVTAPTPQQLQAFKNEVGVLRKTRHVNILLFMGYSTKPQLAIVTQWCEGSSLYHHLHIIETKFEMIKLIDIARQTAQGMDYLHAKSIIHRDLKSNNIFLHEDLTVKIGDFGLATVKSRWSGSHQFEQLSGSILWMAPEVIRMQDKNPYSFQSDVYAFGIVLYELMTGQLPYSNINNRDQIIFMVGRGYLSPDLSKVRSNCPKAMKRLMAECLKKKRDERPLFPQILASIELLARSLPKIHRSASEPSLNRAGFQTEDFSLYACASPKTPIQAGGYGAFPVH
Sequence of Serine/threonine-protein kinase PLK1 (Homo sapiens) (P53350 whole entry): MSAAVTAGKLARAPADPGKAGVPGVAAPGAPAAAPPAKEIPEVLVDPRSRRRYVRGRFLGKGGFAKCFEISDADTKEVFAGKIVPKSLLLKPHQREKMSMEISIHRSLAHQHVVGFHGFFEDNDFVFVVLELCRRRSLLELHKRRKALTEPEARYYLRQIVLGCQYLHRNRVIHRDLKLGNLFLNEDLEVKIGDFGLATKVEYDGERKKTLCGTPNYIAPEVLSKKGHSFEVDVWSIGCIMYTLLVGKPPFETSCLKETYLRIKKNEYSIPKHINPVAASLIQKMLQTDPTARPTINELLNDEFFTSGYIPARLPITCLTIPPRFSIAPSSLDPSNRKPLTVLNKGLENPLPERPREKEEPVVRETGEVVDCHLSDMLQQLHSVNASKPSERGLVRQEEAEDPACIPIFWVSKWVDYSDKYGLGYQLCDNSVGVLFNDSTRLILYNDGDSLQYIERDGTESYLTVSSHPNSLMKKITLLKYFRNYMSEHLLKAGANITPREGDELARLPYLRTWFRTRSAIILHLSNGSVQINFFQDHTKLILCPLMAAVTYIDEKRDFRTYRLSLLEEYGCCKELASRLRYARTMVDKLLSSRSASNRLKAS
Sequence of Calcium/calmodulin-dependent protein kinase type II subunit gamma (Homo sapiens) (Q13555 whole entry): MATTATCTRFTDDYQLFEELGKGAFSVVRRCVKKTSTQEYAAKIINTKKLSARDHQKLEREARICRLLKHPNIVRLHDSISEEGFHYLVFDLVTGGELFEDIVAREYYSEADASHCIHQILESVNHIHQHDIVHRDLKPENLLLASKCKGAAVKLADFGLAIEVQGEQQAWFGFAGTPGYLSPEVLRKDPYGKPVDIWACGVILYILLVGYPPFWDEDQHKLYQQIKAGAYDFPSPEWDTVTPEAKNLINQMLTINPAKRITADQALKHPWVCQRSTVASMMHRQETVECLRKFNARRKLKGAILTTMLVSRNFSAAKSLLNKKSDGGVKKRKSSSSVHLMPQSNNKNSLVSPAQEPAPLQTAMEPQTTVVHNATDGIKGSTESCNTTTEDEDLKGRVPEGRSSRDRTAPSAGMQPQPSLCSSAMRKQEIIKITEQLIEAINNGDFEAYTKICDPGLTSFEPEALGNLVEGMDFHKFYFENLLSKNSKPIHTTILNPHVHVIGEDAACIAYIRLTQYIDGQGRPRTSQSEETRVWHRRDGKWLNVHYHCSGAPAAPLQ
Sequence of Serine/threonine-protein kinase SBK1 (Homo sapiens) (Q52WX2 whole entry): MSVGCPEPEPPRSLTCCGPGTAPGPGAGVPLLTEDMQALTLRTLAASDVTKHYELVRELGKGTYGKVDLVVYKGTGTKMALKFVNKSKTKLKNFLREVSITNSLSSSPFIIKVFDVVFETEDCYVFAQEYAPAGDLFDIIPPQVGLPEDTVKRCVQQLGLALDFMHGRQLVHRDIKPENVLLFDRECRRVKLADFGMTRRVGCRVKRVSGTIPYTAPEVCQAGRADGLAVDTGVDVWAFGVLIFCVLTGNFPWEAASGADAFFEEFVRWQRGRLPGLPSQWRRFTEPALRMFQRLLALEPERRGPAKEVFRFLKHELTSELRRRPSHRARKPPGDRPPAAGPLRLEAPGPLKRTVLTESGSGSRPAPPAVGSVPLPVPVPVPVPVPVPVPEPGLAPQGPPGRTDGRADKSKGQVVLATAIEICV

Row | Structure (SMILES) | Activity [1] [%] | Activity [2] [%] | Activity [3] [%] | Activity [4] [%] | Activity [5] [%] | Activity [6] [%] | Activity [7] [%] | Activity [8] [%] | Activity [9] [%]
1 | C[C@H](Nc1ncnc2nc[nH]c12)c1cc2cccc(Cl)c2c(=O)n1-c1ccccc1 | 85.9 | 92.9 | 95.6 | 99.1 | 105 | 97.2 | 94 | 99.5 | 114
2 | CC[C@H](Nc1ncnc2[nH]cnc12)c1nc2cccc(F)c2c(=O)n1-c1ccccc1 | 87.6 | 91 | 96.2 | 97.6 | 104 | 96.5 | 95.4 | 101 | 110
3 | CC(C)Oc1ccc(-c2nn([C@@H](C)c3oc4ccc(F)cc4c(=O)c3-c3cccc(F)c3)c3ncnc(N)c23)cc1F [UMBRALISIB] | 92.2 | 91.5 | 99 | 95.8 | 102 | 97.9 | 98.4 | 98.8 | 97.4

— ChEMBL document CHEMBL5715954, “Silencing c-Myc translation as a therapeutic strategy through targeting PI3Kδ and CK1ε in hematological malignancies” (Blood, 2017)
